Counter-ions that a name gives are not always drawn.
How the values were obtained:
[1] = system: tumor-bearing mouse model (non-small cell lung cancer model accompanied by ghrelin resistance); test: Example 1: food intake and body weight in tumor-bearing mouse model (A549 cells transplanted into nude mice); format: in vivo; details: for body weight after 5-day administration / cumulative food intake in the period of administration: vs distilled water group
Method: Using tumor-bearing model animals where adenocarcinomic human alveolar basal epithelial cells, A549 cells, were transplanted into nude mice, examination was performed about drug efficacy of Compound 1 on the food intake and the body weight.
(§1) Subculture of A549 cells was performed using a 10% FBS-containing RPMI1640 culture medium. In evaluation of drug efficacy, 6-week-old female BALB/C slc/nu/nu mice (Japan SLC, Inc.) were purchased, and were used after habituated for one week. Tumor-bearing model animals were prepared as follows. Specifically, 2.5×10^7 cells of A549 cells were transplanted to the right abdominal region of each mouse by subdermal administration. On Day 43 from the cell transplantation, the mice were divided into groups to have an equal averaged tumor volume.
The effects of a variety of compounds on food intake and body weight were examined as follows. Specifically, for 5 days from Day 44 to Day 48 from the cell transplantation, the compounds were orally administered daily, and the food intake and the body weight were measured at the same time. The doses of Compound 1 were 0.25 mg/kg (6 animals), 0.5 mg/kg (6 animals), and 1 mg/kg (6 animals). To verify that the model animals are in a ghrelin resistant state, anamorelin hydrochloride (MedChemExpress) was used at 30 mg/kg (6 animals). The food intake was calculated by subtracting the weight of feed on the previous day of measurement from the weight of feed on the day of measurement.
In FIG. 1, the ordinate represents the cumulative food intake in the period of administration of the compounds (from the start of administration to the day next to the final day of administration). In FIG. 2, the ordinate represents the percentage of changes in body weight on Day 6 from the start of administration of the compounds (the day next to the final day of administration) (after 5-day administration) (relative to the body weight measured immediately before the first administration of the compound designated as 100%). In the abscissas of FIGS. 1 and 2, “Distilled water” represents distilled water-treated group, “Compound 1 0.25” represents Compound 1-treated group at 0.25 mg/kg, “Compound 1 0.5” represents Compound 1-treated group at 0.5 mg/kg, “Compound 1 1” represents Compound 1-treated group at 1 mg/kg, and “Anamorelin” represents anamorelin hydrochloride-treated group at 30 mg/kg. In FIGS. 1 and 2, the mark “*” represents a statistical significance (*: P<0.05) in comparison with distilled water-treated group (Dunnett's multiple test).

[2] = system: tumor-bearing mouse model (non-small cell lung cancer model accompanied by ghrelin resistance); test: Example 2: food intake and body weight in tumor-bearing mouse model (A549 cells transplanted into nude mice); format: in vivo
Method: Using tumor-bearing model animals where adenocarcinoma human alveolar basal epithelial cells, A549 cells, were transplanted into nude mice, examination was performed about drug efficacy of Compounds 1 and 2 on the food intake and the body weight.
as §1, with “7-week old” for “6-week-old”
The effects of a variety of compounds on food intake and body weight were examined as follows. Specifically, for 5 days from Day 44 to Day 48 from the cell plantation, Compound 2 was intraperitoneally administered daily, Compound 1 and anamorelin hydrochloride were orally administered daily, and the amount of feed and the body weight were measured at the same time. Compound 2 was used at 1 mg/kg (9 animals), and Compound 1 was used at 0.25 mg/kg (9 animals), which is the lowest dose to exert drug efficacy. To verify that the model animals are in a ghrelin resistant state, anamorelin hydrochloride was used at 30 mg/kg (9 animals) herein. The food intake was calculated by subtracting the weight of feed on the previous day of measurement from the weight of feed on the day of measurement.
In FIG. 3, the ordinate represents the cumulative food intake in the period of administration of the compounds (from the start of administration to the day next to the final day of administration). In FIG. 4, the ordinate represents the percentage of changes in body weight on Day 6 from the start of administration of the compounds (the day next to the final day of administration) (after 5-day administration) (relative to the body weight measured immediately before the first administration of the compound designated as 100%). In the abscissas of FIGS. 3 and 4, “Normal saline” represents a group treated intraperitoneally with normal saline, “Compound 2” represents a group treated intraperitoneally with Compound 2 at 1 mg/kg, “Compound 1” represents a group treated orally with Compound 1 at 0.25 mg/kg, and “Aanamorelin” represents a group treated orally with anamorelin hydrochloride at 30 mg/kg. In FIGS. 3 and 4, the mark “*” represents a statistical significance (*: P<0.05) compared to the group treated with normal saline (Dunnett's multiple test).

[3] = system: model of non-small cell lung cancer to which A549 cells have been transplanted subcutaneously; details: cited from earlier work
normal animal = details: anamorelin hydrochloride 30 mg/kg; cited from earlier work
[4] = Compound 1 0.25 mg/kg oral daily for 5 days, compared with Compound 2 1 mg/kg i.p.
[5] = Compound 2 1 mg/kg intraperitoneal daily for 5 days, vs normal saline group, Dunnett P<0.05
[6] = anamorelin hydrochloride 30 mg/kg oral daily for 5 days

SMILES: CN(C(=O)/C=C/c1ccoc1)[C@@H]1CC[C@@]2(O)[C@H]3Cc4ccc(O)c5c4[C@@]2(CCN3CC2CC2)[C@H]1O5 [Compound 1, (−)-17-(cyclopropylmethyl)-3,14β-dihydroxy-4,5α-epoxy-6β-[N-methyl-trans-3-(3-furyl)acrylamide]morphinan hydrochloride]
- body weight after 5-day administration ([1]; Compound 1 0.25 mg/kg oral daily for 5 days): tendency of an increase in body weight
- body weight after 5-day administration ([1]; Compound 1 0.5 mg/kg oral daily for 5 days, Dunnett P<0.05): statistically significant increasing effect in body weight
- body weight after 5-day administration ([1]; Compound 1 1 mg/kg oral daily for 5 days, Dunnett P<0.05): statistically significant increasing effect in body weight
- cumulative food intake in the period of administration ([1]; Compound 1 0.25, 0.5 and 1 mg/kg oral daily for 5 days (Day 44-48 from transplantation), Dunnett P<0.05): statistically significant increasing effect in food intake
- lowest dose to exert drug efficacy ([1]; oral, tumor-bearing mouse model): 0.25 mg/kg
- body weight after 5-day administration [2, 4]: increasing effect in body weight higher than those exhibited by Compound 2
- cumulative food intake in the period of administration [2, 4]: increasing effect in food intake and the increasing effect in body weight higher than those exhibited by Compound 2

SMILES: CC(C)C[C@@H](NC(=O)[C@@H](Cc1ccccc1)NC(=O)[C@H](N)Cc1ccccc1)C(=O)N[C@H](CCCCN)C(=O)N1CCC(N)(C(=O)O)CC1 [Compound 2, 4-amino-1-[(2R)-6-amino-2-[(2R)-2-[(2R)-2-[(2R)-2-amino-3-phenylpropanamide]-3-phenylpropanamide]-4-methylpentanamide]hexanoyl]piperidine-4-carboxylic acid]
- body weight after 5-day administration [2, 5]: statistically significant increasing effect in body weight
- cumulative food intake in the period of administration [2, 5]: statistically significant increasing effect in food intake

SMILES: CN(C)N(C)C(=O)[C@@]1(Cc2ccccc2)CCCN(C(=O)[C@@H](Cc2c[nH]c3ccccc23)NC(=O)C(C)(C)N)C1 [anamorelin hydrochloride, reference compound]
- body weight after 5-day administration [1, 6]: any statistically significant increasing effect in food intake or increasing effect in body weight was not observed
- cumulative food intake in the period of administration [1, 6]: any statistically significant increasing effect in food intake or increasing effect in body weight was not observed
- therapeutic effects on cachexia ([2]; anamorelin hydrochloride 30 mg/kg oral, administered from Day 44 after cell transplantation (Examples 1 and 2)): no therapeutic effects were observed on cachexia
- body weight ([3]; anamorelin hydrochloride 30 mg/kg, A549 cells transplanted subcutaneously in the abdominal region): increase in body weight
- therapeutic effects on cachexia ([3]; anamorelin hydrochloride administered on Day 23 from cell transplantation): achieved therapeutic effects on cachexia
- body weight (normal animal): increase in body weight
